How the values were obtained:
MDAMB231 tumor cells = experiment: Alkaline comet assay; format: cell-based, human; conditions: 24 h; AsiDNA (16 μM) or olaparib (1 μM) alone
Experimental: (§1) To dissect this cytotoxic synergy, the inventors examined the effect of AsiDNA, Ola or both on DNA repair activities. […] Pan-nuclear phosphorylation of H2AX is thought to be involved in the inhibition of HR and NHEJ repair enzyme recruitment by AsiDNA. […] This increase could account for the efficient toxicity of the combination in MDAMB231 cells.
(§2) Cells treated with AsiDNA (16 μM), olaparib (1 μM) or both were suspended in 0.5% low melting point agarose in DMEM and transferred onto a frosted glass microscope slide precoated with a layer of 0.5% normal melting point agarose. Slides were immersed in lysis solution [2.5 mol/L NaCl, 100 mmol/L EDTA, 10 mmol/L Tris, 1% sodium lauryl sarcosinate, 10% DMSO, 1% Triton X-100 (pH 10)] at 4jC for 1 h, placed in a electrophoresis tank containing 0.3 mol/L NaOH (pH 13) and 1 mmol/L EDTA for 40 min, electrophoresis for 25 min at 25 V (300 mA), washed with neutral buffer [400 mmol/L Tris-HCl (pH 7.5)], and stained with 20 Ag/mL ethidium bromide. The variables of the “comets” were quantified with the use of the software Comet Assay 2 (Perceptive Instrument). Triplicate slides were processed for each experimental point. The tail moment is defined as the product of the percentage of DNA in the tail and the displacement between the head and the tail of the comet.

MCF10A non-tumor cells = experiment: Alkaline comet assay; format: cell-based, human; conditions: 24 h; olaparib (1 μM) alone or with AsiDNA (16 μM)
Experimental: as §1, §2

BC173 = experiment: Cell survival, trypan blue counting; format: cell-based, human
Experimental: (§3) Cells were grown according to the supplier's instructions.

HCC1187 = experiment: Cell survival, trypan blue counting; format: cell-based, human
Experimental: as §3

MDAMB231 = experiment: Cell survival, trypan blue counting; format: cell-based, human
Experimental: as §3

MDAMB468 = experiment: Cell survival, trypan blue counting; format: cell-based, human
Experimental: as §3

HeLa BRCA1 SX = experiment: Cell survival, trypan blue counting; format: cell-based, human; conditions: 4.80 μM of AsiDNA and/or 0.1 μM of Ola; day 6 after treatment
Experimental: (§4) Cells were grown according to the supplier's instructions. Cell lines were maintained at 37° C. in a humidified atmosphere at 5% CO2.
(§5) AsiDNA or PARPi cytotoxicity was measured by relative survival and cell death quantification. Adherent cells were seeded in 24-well culture plates at appropriate densities and incubated 24 hours at 37° C. before AsiDNA and/or PARPi addition. Cells were harvested day 6aftertreatment, stained with 0.4% trypan blue (Sigma Aldrich, Saint-Louis, USA) and counted with a Burker chamber. Cell survival was calculated as ratio of living treated cells to living mock-treated cells. Cell death was calculated as the number of dead cells on the total number of counted cells. Additivity of the toxicity was calculated by the product of cell survivals to AsiDNA and cell survivals to PARPi.

[1] = tested on: Breast cancer cell lines MDAMB231; experiment: Cell survival with DT01 and PARP inhibitors (Example 1, FIG. 1); format: cell-based, human; conditions: DT01 100 or 333 μg/ml plus Olaparib 0.1, 1 μM or Veliparib 1, 10, 50 μM; 6 days
Experimental: Breast cancer cell lines MDAMB231 were treated with 100 μg/ml (Black, Squares) or 333 μg/ml (Grey, Crosses) of DT01 or no DT01 (Black, Diamond) and exposed to either 0, 0.1 and 1 μM of Olaparib (upper panel) or 1, 10 and 50 μM Veliparib (lower panel). Survival was measured 6 days after treatment using trypan blue to detect living cells. The data are presented as % of the non-treated control.
The human cell lines were grown in complete RPMI (Gibco, Cergy Pontoise, France) supplemented with 10% fetal bovine serum (ATGC, Orléans, France), 1% sodium pyruvate, streptomycin ([…]) and penicillin ([…]) (Invitrogen, Carlsbad, Calif., USA). Cells were maintained at 37° C. under a 5% CO2 atmosphere, at 100% humidity. Treatments were performed by adding nucleotides (DT01 and others) or/and PARP inhibitors at time zero in medium without serum. The medium was changed with fresh medium containing fetal bovine serum 24 hours after beginning of treatment. Cells were let to grow for 4 additional days (5 days after treatment), treated with trypsin and counted for total number of cells. Trypan blue (0.4%) was added for counting the living cells (uncolored) in the population.

HCT116 = experiment: Cell survival, trypan blue counting; format: cell-based, human; conditions: 4.80 μM of AsiDNA and/or 0.1 μM of Ola; day 6 after treatment
Experimental: as §4, §5

IM9 = experiment: Cell survival, trypan blue counting; format: cell-based, human; conditions: 4.80 μM of AsiDNA and/or 0.1 μM of Ola; day 6 after treatment
Experimental: as §4, §5

HCC38 = experiment: Cell survival, trypan blue counting; format: cell-based, human; conditions: 4.80 μM of AsiDNA and/or 0.1 μM of Ola; day 6 after treatment
Experimental: as §4, §5

[2] = tested on: mutants with one repair defect (PARP1, BRCA1, BRCA2, Ku70, DNA-PKcs); experiment: Single treatments in isogenic pairs with DNA repair mutants; conditions: 4.80 μM AsiDNA or 0.1 μM Ola
Experimental: To determine if the efficacy of the combination of AsiDNA with Ola was not restricted to BC, the inventors analyzed the sensitivity of different cancer cell lines including glioblastoma, cervical cancer, colon cancer, blood cancer and melanoma.
as §4, §5

2 non-tumor cell lines = experiment: Combined treatment survival in non-tumor cell lines (FIG. 6, 12); format: cell-based, human; conditions: AsiDNA 4.8 μM, olaparib 0.1 and 1 μM; 6 days
Experimental: Efficacy of AsiDNA (4. 8 μM), olaparib (0, 0.1 and 1 μM) or both was monitored 6 days after treatment by cell counting after trypan blue labeling. (A) Percentage of living cells relative to non-treated condition (NT). (B) Percentage of dead cells. Data are expressed as mean+Sc.D. of at least 2 independent experiments. Dotted lines indicate the calculated cell survivals if additivity between AsiDNA and olaparib.
(A) Percentage of living cells relative to non-treated condition (NT). (B) Percentage of dead cells. Dotted lines indicate the calculated cell survivals if additivity between AsiDNA and veliparib.
The inventors monitored cell survival to combined treatment of 3 BC and 2 non-tumor cell lines with different sensitivities to Ola and AsiDNA alone (FIG. 6; Table 1).

HeLa PARP1 KD = experiment: Cell survival, trypan blue counting; format: cell-based, human; conditions: 4.80 μM of AsiDNA and/or 0.1 μM of Ola; day 6 after treatment
Experimental: as §4, §5

Hut78 = experiment: Cell survival, trypan blue counting; format: cell-based, human; conditions: 4.80 μM of AsiDNA and/or 0.1 μM of Ola; day 6 after treatment
Experimental: as §4, §5

HCT116 KU70^+/− = experiment: Cell survival, trypan blue counting; format: cell-based, human; conditions: 4.80 μM of AsiDNA and/or 0.1 μM of Ola; day 6 after treatment
Experimental: as §4, §5

[3] = tested on: MD227 human breast cancer cell lines grafted in the fat pad; experiment: In vivo test on tumor growth, breast cancer xenograft; conditions: DT01 2.5 mg intratumoral and 2.5 mg subcutaneous daily for 5 days; Olaparib 200 mg/kg/day per os, 5 daily sessions; or both
Experimental: Nude mice with xenografted MD227 human breast cancer cell lines grafted in the fat pad were treated by intratumoral administration of DT01 (5 mg/day) and Olaparib (200 mg/kg/day). Tumor growth was monitored (time zero: beginning of treatment). Eight to ten animals were treated per group (group 1: vehicle injection (grey line); group 2: DT01 (black dotted line); group 3: Olaparib (grey dotted line); group 4; DT01+ Olaparib (black line)). Treatment was administered 5 following days.
Human breast cancer xenograft tumors were obtained by injecting 4.10^6 tumor cells into the fat pad of adult female nude mice (Janvier, Le Genest Saint Isle, France). The animals were housed in the laboratory for at least 1 week before starting experiments. There were six animals per cage under controlled conditions of light and dark cycles (12 h: 12 h), relative humidity (55%), and temperature (21° C.). Food and tap water were available ad libitum. […] Mice were weighed every week and followed up for 280 days. For ethical reasons, the animals were sacrificed when tumors reached 1500 mm^3. The Local Committee on Ethics of Animal Experimentation approved all experiments.

HeLa BRCA2 SX = experiment: Cell survival, trypan blue counting; format: cell-based, human; conditions: 4.80 μM of AsiDNA and/or 0.1 μM of Ola; day 6 after treatment
Experimental: as §4, §5

HeLa CTL SX = experiment: Cell survival, trypan blue counting; format: cell-based, human; conditions: 4.80 μM of AsiDNA and/or 0.1 μM of Ola; day 6 after treatment
Experimental: as §4, §5

MO59K = experiment: Cell survival, trypan blue counting; format: cell-based, human; conditions: 4.80 μM of AsiDNA and/or 0.1 μM of Ola; day 6 after treatment
Experimental: as §4, §5

MCF10A = experiment: Cell survival, trypan blue counting; format: cell-based, human; conditions: 4.80 μM of AsiDNA and/or 0.1 μM of Ola; day 6 after treatment
Experimental: as §4, §5

[4] = 0.1 μM Ola, 4.8 μM AsiDNA, sensitive = difference in % dead cells higher than two-fold
[5] = 4.80 μM of AsiDNA and/or 0.1 μM of Ola, day 6 after treatment

O=C(c1cc(Cc2n[nH]c(=O)c3ccccc23)ccc1F)N1CCN(C(=O)C2CC2)CC1 [Olaparib, 4-[(3-[(4-cyclopropylcarbonyl)piperazin-4-yl]carbonyl)-4-fluorophenyl]methyl(2H)-phthalazin-1-one]
DNA damage (alkaline comet assay) (MDAMB231 tumor cells): induced accumulation of damage
DNA damage (alkaline comet assay) (MCF10A non-tumor cells): slight increase of DNA damage
sensitivity to treatment (BC173; [4]): sensitive only to AsiDNA
Survival (%/NT) (BC173; [5]): 94.4 %/NT
sensitivity to treatment (HCC1187; [4]): sensitive only to Ola
Survival (%/NT) (HCC1187; [5]): 61.5 %/NT
sensitivity to treatment (MDAMB231; [4]): resistant to both treatments
Survival (%/NT) (MDAMB231; [5]): 90.9 %/NT
IC20 (MDAMB231; Homo sapiens, MDA-MB-231, MDAMB231, PARPi dose giving 80% survival): 1 µM
IC50 (MDAMB231; Homo sapiens, MDA-MB-231, MDAMB231, PARPi dose resulting in 50% survival): 3.7 µM
sensitivity to treatment (MDAMB468; [4]): sensitive to both treatments
Survival (%/NT) (MDAMB468; [5]): 68.3 %/NT
Survival (%/NT) (HeLa BRCA1 SX): 71.4 %/NT
survival to combined treatment with DT01 versus expected added effect of both single treatments [1]: synergic effect
Survival (%/NT) (HCT116): 82.9 %/NT
Survival (%/NT) (IM9): 84.6 %/NT
Survival (%/NT) (HCC38): 66.7 %/NT
cytotoxicity of single treatments to DNA repair mutants [2]: essentially restricted to the BRCA mutants
sensitivity to combined and single treatments (2 non-tumor cell lines): insensitive
Survival (%/NT) (HeLa PARP1 KD): 100.5 %/NT
Survival (%/NT) (Hut78): 85.8 %/NT
Survival (%/NT) (HCT116 KU70^+/−): 88.6 %/NT
local skin toxicity or systemic toxicity [3]: No local skin toxicity or systemic toxicity
Survival (%/NT) (HeLa BRCA2 SX): 65.0 %/NT
Survival (%/NT) (HeLa CTL SX): 105.1 %/NT
Survival (%/NT) (MO59K): 117.3 %/NT
Survival (%/NT) (MCF10A): 86.2 %/NT

Source: patent US10563197B2, “Use of a combination of Dbait molecule and PARP inhibitors to treat cancer” (INSTITUT CURIE, priority 2015, dated 2020)
